Here are results for one compound from paper PMC9788418, “Design, Synthesis and Biological Evaluation of Syn and Anti-like Double Warhead Quinolinones Bearing Dihydroxy Naphthalene Moiety as Epidermal Growth Factor Receptor Inhibitors with Potential Apoptotic Antiproliferative Action” (Molecules, 2022).

For assay [1], the system named is caspase-8. Nature of the assay: Caspase-8 activation assay. Format: cell-based, human.
The test system of assay [2] is Bcl-2. Nature of the assay: Bcl-2 inhibition assay. Format: cell-based, human. The method, then:
4.2.5. Bcl-2inhibition assay
Mix all reagents thoroughly without foaming before use. Wash the microwells twice with approximately 300 μL Wash Buffer per well with thorough aspiration of microwell contents between washes. Take caution not to scratch the surface of the microwells. After the last wash, empty the wells and tap microwell strips on absorbent pad or paper towel to remove excess Wash Buffer. Use the microwell strips immediately after washing or place upside down on a wet absorbent paper for not […]
longer than 15 minutes. […] Add 100 μL of Sample Diluent in duplicate to all standard wells and to the blank wells. Prepare standard (1:2 dilution) in duplicate ranging from 32 ng/mL to 0.5 ng/mL. Add 100 μL of Sample Diluent, in duplicate, to the blank wells. Add 80 μL of Sample Diluent, in duplicate, to the sample wells. Add 20 μL of each Sample, in duplicate, to the designated wells. Add 50 μL of diluted biotin-conjugate to all wells, including the blank wells. Cover […]
Remove plate cover and empty the wells. […]
(§1) plate cover and incubate at room temperature, on a microplate shaker at 100 rpm if available, for 1 hour. Remove plate cover and empty the wells. Wash microwell strips 3 times as described in step 2.
(§2) Proceed to the next step. Pipette 100 μl of mixed TMB Substrate Solution to all wells, including the […]
available on a rotator set at 100 rpm. Avoid direct exposure to intense light. The point, at which the substrate reaction is stopped, is often determined by the ELISA reader. Many ELISA readers record absorbance only up to 2.0 O.D. Therefore, the color development within individual microwells must be watched by the person running the assay and the substrate reaction stopped before positive wells are no longer properly detectable. Stop the enzyme reaction by quickly pipetting 100 μL of Stop Solution into each well, including the blank wells. It is important that the Stop Solution is spread quickly and uniformly throughout the microwells to completely inactivate the enzyme. Results must be read immediately after the Stop Solution is added or within one hour if the microwell strips are stored at 2 - 8°C in the dark. Read absorbance of each microwell on a spectrophotometer using 450 nm as the primary wave length. […]

In assay [3] the test system is caspase-9. Nature of the assay: Caspase-9 level assay. The assay is classed as cell-based, human. The method, then: The impact of compounds 4a and 4b on caspase-8 and caspase-9 was also assessed to clarify how compounds 4a and 4b induce apoptosis by activating the intrinsic or extrinsic route.
Assay [4] concerns Bax. Nature of the assay: Bax activation assay. Format: cell-based, human. Particulars: for Bax Conc: A-549. The method, then: 8, and lysed with Cell Extraction Buffer. This lysate was diluted in Standard Diluent Buffer over the range of the assay and measured for human active caspase-8 content. (cells are Plated in a density of 1.2 – 1.8 × 10,000 cells/well in a volume of 100µl complete growth medium + 100 ul of the tested compound per well in a 96-well plate for 24 hours before the enzyme assay for […].). […]
4.2.4. Bax activation assay
Bring all reagents, except the human Bax-α Standard, to room temperature for at least 30 minutes prior to opening. The human Bax-α Standard solution should not be left at room temperature for more than 10 minutes. All standards, controls and samples should be run in duplicate. Refer to the Assay Layout Sheet to determine the number of wells to be used and put any remaining wells with the desiccant back into the pouch and seal the ziploc. Store unused wells at 4 °C. Pipet 100 μL of Assay Buffer into the S0 (0 pg/mL standard) wells. Pipet 100 μL of Standards #1 through #6 into the appropriate wells. Pipet 100 μL of the Samples into the appropriate wells. Tap the plate gently to mix the contents. Seal the plate and incubate at room temperature on a plate shaker for 1 hour at ~500 rpm. Empty the contents of the wells and wash by adding 400 μL of wash solution to every well.
Repeat the wash 4 more times for a total of 5 washes. After the final wash, empty or aspirate the wells and firmly tap the plate on a lint free paper towel to remove any remaining wash buffer. Pipet 100 μL of yellow Antibody into each well, except the Blank. Seal the plate and incubate at room temperature on a plate shaker for 1 hour at ~500 […]
wells and firmly tap the plate on a lint free paper towel to remove any remaining wash buffer. Add […]
100 μL of blue Conjugate to each well, except the Blank. Seal the plate and incubate at room temperature on a plate shaker for 30 minutes at ~500 rpm. Empty the contents of the wells and wash by adding 400 μL of wash solution to every well. Repeat the wash 4 more times for a total of 5 washes. After the final wash, empty or aspirate the wells and firmly tap the plate on a lint free paper towel to remove any remaining wash buffer. Pipet 100 μL of Substrate Solution into each well.
Incubate for 30 minutes at room temperature on a plate shaker at ~500 rpm. Pipet 100 μL Stop Solution to each well. Blank the plate reader against the Blank wells, read the optical density at 450 nm. Calculate the average net Optical Density (OD) bound for each standard and sample by subtracting the average Blank OD from the average OD for each standard and sample. Using linear graph paper, plot the Average Net OD for each standard versus Bax concentration in each standard.
Approximate a straight line through the points. The concentration of Bax in the unknowns can be determined by interpolation. […]

Assay [5] concerns Cytochrome C. The assay can be described thus: Cytochrome C assay. The assay is classed as cell-based, human. How it is done: The concentration of Cytochrome c in a cell is crucial for activating caspases and starting the intrinsic apoptosis process. […]
as §1, §2
available on a rotator set at 100 rpm. Avoid direct exposure to intense light. The point, at which the substrate reaction is stopped, is often determined by the ELISA reader. Many ELISA readers record absorbance only up to 2.0 O.D. Therefore, the color development within individual microwells must be watched by the person running the assay and the substrate reaction stopped before positive wells are no longer properly detectable. Stop the enzyme reaction by quickly pipetting 100 μL of Stop Solution into each well, including the blank wells. It is important that the Stop Solution is spread quickly and uniformly throughout the microwells to completely inactivate the enzyme. Results must be read immediately after the Stop Solution is added or within one hour if the microwell strips are stored at 2 - 8°C in the dark. Read absorbance of each microwell on a spectrophotometer using 450 nm as the primary wave length.
4.2.6. Cytochrome C assay […]
cytochrome C, and lysed with Cell Extraction Buffer. This lysate was diluted in Standard Diluent Buffer over the range of the assay and measured for cytochrome C content. (Cells are Plated in cells/well in a volume of 100µl complete growth medium + 100 µl of the tested compound + 50 µl of 1X biotin conjugated antibody+ 100 µl of 1X streptavidin-HRP+ 100 µL TMB substrate soln of per well in a 96-well plate for 24 hours before assay).
4.3. Statistical analysis
Computerized Prism 5 program was used to statistically analyzed data using one-way ANOVA test followed by Tukey’s as post ANOVA for multiple comparison at P ≤.05. Data were presented as […]

For assay [6], the system named is caspase-3. Nature of the assay: Caspase-3 activation assay.
Experimental: record autophosphorylation level, EGFR kinase assay was carried out based on DELFIA/Time-
Resolved Fluorometry. The compounds were first dissolved in DMSO absolute, after dilution to
Each compound (10 µL) was incubated
with recombinant enzyme (10 µL, 5 ng for EGFR, 1:80 dilution in 100 mM HEPES) for 10 min at
25 °C, after the addition of 5X buffer (10 µL, containing 2 mM MnCl2, 100 µM Na3VO4, 20 mM HEPES and 1 mM DTT) and ATP-MgCl2 (20 µL, containing 0.1 mM ATP and 50 mM MgCl2) and
incubation for 1h. The negative and positive controls were included in each plate by the incubation
of enzyme either with or without ATP-MgCl2. The liquid was removed after incubation and the plates
were washed thrice using wash buffer. Europium-tagged antiphosphotyrosine antibody (75 µL, 400
ng) was added to each well followed by incubation of 1h and then washing of the plates using buffer.
The enhancement solution was added to each well and the signal was recorded at excitation and
The autophosphorylation percentage inhibition by compounds was calculated using the following equation:
[7] abbreviates: A-549, vs control untreated cells.

`COc1cccc2c1C(=O)c1c(O)c3c(c(O)c1C2=O)C[C@@](O)(C(=O)CO)C[C@@H]3O[C@H]1C[C@H](N)[C@H](O)[C@H](C)O1` [Doxorubicin, reference compound]: the “Caspase-8 Conc” value in assay [1] was 1.80 ng/mL. Also, the “Caspase-8 Fold Change” value in assay [1] (vs control cells) was 9. For the same compound, in assay [2] (A-549), the “Bcl-2 Conc” value was 1.98 ng/mL. For the same compound, the “Bcl-2 Fold Reduction” value in assay [2] (A-549, vs control) is 2.5. In assay [3], the “Caspase-9 Conc” value turned out to be 16.25 ng/mL. Also, in assay [3] (vs control cells), the “Caspase-9 Fold Change” value is 17.00. Also, the “Bax Conc” value in assay [4] is reported as 276.20 pg/mL; in assay [4] (listed as doxorubicin) it was 276 pg/mL. For the same compound, the “Bax Fold Change” value in assay [4] (setting [7]) is on record as 33. The “Cytochrome C Conc” value in assay [5] (A-549) was determined as 0.60 ng/mL. The “Cytochrome C Fold Change” value in assay [5] (A-549, vs control) stood at 12. Further, the “Caspase-3 Conc” value in assay [6] (A-549) worked out at 503.25 ± 4.50 pg/mL. In addition, in assay [6] (setting [7]), the “Caspase-3 Fold Change” value was 7.70.
